Measured values: patent US20190192699A1, “NUCLEAR IMAGING AND RADIOTHERAPEUTICS AGENTS TARGETING CARBONIC ANHYDRASE IX AND USES THEREOF” (THE JOHNS HOPKINS UNIVERSITY, priority 2016, published 2019)
“Also recorded” adds a separate entry of the source.

Key:
[1] = test system: SK-RC-52 xenografts; experiment: Radio-therapy of [177Lu]XYIMSR-01, tumor growth; assay type: in vivo, mice; details: 11.1 MBq (300 μCi) and 18.5 MBq (500 μCi) i.v., n=4
Protocol: (§1) Cell Lines and Mouse Models. Animal experiments were performed in accordance with protocols approved by the Johns Hopkins Animal Care and Use Committee (ACUC). Six-week-old female NOD/SCID mice were purchased from the Animal Resource Core of the Sidney Kimmel Comprehensive Cancer Center of Johns Hopkins and were subcutaneously injected in the lower left flank or upper right flank with 1×10^6 SK-RC-52 cells in RPMI 1640 GlutaMAX™ media (Life Technologies, Frederick, Md.) supplemented with 1% fetal bovine serum (FBS). Mice were monitored for tumor size and used for SPECT/CT imaging when the size of the tumor reached 100 mm^3.
Radio-therapy of [^177Lu]XYIMSR-01. Mice bearing SK-RC-52 xenografts at lower left flank were injected intravenously with PBS, 11.1 MBq (300 μCi) and 18.5 MBq (500 μCi) of [^177Lu]XYIMSR-01 in 200 μL of PBS (n=4). Size of the tumors was measured twice a week after the injection. […] The P-values were 0.042 and 0.031 for the 11.1 and […] doses, respectively.

[2] = test system: SK-RC-52 xenografts; experiment: Biodistribution of [111In]XYIMSR-01 and [177Lu]XYIMSR-01; assay type: in vivo, mice
Protocol: as §1
Biodistribution of [^111In]XYIMSR-01 and [^177Lu]XYIMSR-01. Mice bearing SK-RC-52 xenografts at lower left flank were injected intravenously with 740 kBq (20 μCi) of [^111In]XYIMSR-01, or [^177Lu]XYIMSR-01 in 200 μL of PBS. For competitive blocking, same tumor bearing mice were injected with 740 kBq (20 μCi) of [^111In]XYIMSR-01 and 200 nmole of 1 in 200 μL of PBS. At 1 h, 4 h, 8 h, 24 h and 48 h post-injection, mice were sacrificed by cervical dislocation and the blood was immediately collected by cardiac puncture. Heart, lungs, pancreas, spleen, fat, brain, muscle, small intestines, liver, stomach, kidney, urinary bladder, and tumor were collected. Each organ was weighed and the tissue radioactivity was measured with an automated gamma counter (1282 Compugamma CS, Pharmacia/LKBNuclear, Inc., Mt. Waverly, Vic. Australia). The percentage of injected dose per gram of tissue (% ID/g) was calculated by comparison with samples of a standard dilution of the initial dose. All measurements were corrected for radioactive decay.
Data were expressed as mean±standard deviation (SD). Prism software (GraphPAD, San Diego, Calif.) was used to determine statistical significance. Statistical significance was calculated using a paired t test. P-values […] were considered significant.

[3] = molecular target: CAIX (Homo sapiens, UniProt Q16790); experiment: In vitro uptake of [177Lu]XYIMSR-01; assay type: cell-based; parameters: host or cells: ccRCC tumours in patients
[4] = test system: CAIX-expressing SK-RC-52 tumors; experiment: SPECT/CT imaging of [177Lu]XYIMSR-01; assay type: in vivo, mice; details: intravenous
Protocol: as §1
SPECT/CT imaging of [^177Lu]XYIMSR-01. Mice were injected with 1.7 mCi of [^177Lu]XYIMSR-01 in 250 uL of PBS (pH7.0) intravenously, anesthetized under 3% isofluorane prior to being placed on the scanner bed and kept warm with an external light source while being scanned. Isofluorane levels were decreased to 1% throughout the scanning process in order to ensure mouse survival. Imaging of mice was then carried out using a CT-equipped Gamma Medica-Ideas SPECT scanner (Northridge, Calif.). A CT scan was performed at the end of each SPECT scan for anatomical co-registration. CT and SPECT scans were performed at 1, 4, 8, 24, and 48 hrs post injection of the [^177Lu]XYIMSR-01. Obtained data sets were subsequently reconstructed using the provided Gamma Medica-Ideas software. […]

[5] = 24 hr + Block (200 nmole of 1 co-injected)
[6] = 48 hr + Block (200 nmole of 1 co-injected)

## CC(CCC(=O)N[C@@H](CC(=O)N[C@@H](CC(=O)N[C@@H](CCCCn1cc(CCCC(=O)Nc2nnc(S(N)(=O)=O)s2)nn1)C(=O)NCCOCCOCCNC(=O)CN1CCN(CC(=O)[O-])CCN(CC(=O)[O-])CCN(CC(=O)[O-])CC1)C(=O)O)C(=O)O)(c1ccc(O)cc1)c1ccc(O)cc1.[177Lu+3] [[^177Lu]XYIMSR-01]
[1]
  tumor growth compared with control non-treated mice: Delays in tumor growth; also recorded: significant therapeutic effect in controlling tumor growth
[2]; 1 hr post-injection
  Biodistribution: Bladder: 26.55 ± 11.08 % ID/g
  Biodistribution: Blood: 0.55 ± 0.06 % ID/g
  Biodistribution: Brain: 0.49 ± 0.08 % ID/g
  Biodistribution: Fat: 1.07 ± 0.58 % ID/g
  Biodistribution: Heart: 3.59 ± 0.73 % ID/g
  Biodistribution: Kidney: 40.77 ± 6.68 % ID/g
  Biodistribution: Liver: 4.15 ± 0.39 % ID/g
  Biodistribution: Lung: 23.72 ± 6.49 % ID/g
  Biodistribution: Muscle: 1.42 ± 0.40 % ID/g
  Biodistribution: Pancreas: 2.03 ± 0.25 % ID/g
  Biodistribution: Small intestine: 6.11 ± 0.68 % ID/g
  Biodistribution: Spleen: 0.29 ± 0.07 % ID/g
  Biodistribution: Stomach: 12.20 ± 1.66 % ID/g
  Biodistribution: Tumor: 26.91 ± 6.06 % ID/g
  Tumor/Blood ratio: 47.9 ± 13.4
  Tumor/Kidney ratio: 0.6 ± 0.2
  Tumor/Muscle ratio: 18.8 ± 5.0
[2]; 4 hr post-injection
  Biodistribution: Bladder: 6.60 ± 3.66 % ID/g
  Biodistribution: Blood: 0.18 ± 0.02 % ID/g
  Biodistribution: Brain: 0.33 ± 0.04 % ID/g
  Biodistribution: Fat: 0.56 ± 0.14 % ID/g
  Biodistribution: Heart: 1.52 ± 0.54 % ID/g
  Biodistribution: Kidney: 19.17 ± 2.82 % ID/g
  Biodistribution: Liver: 1.79 ± 0.44 % ID/g
  Biodistribution: Lung: 10.35 ± 1.86 % ID/g
  Biodistribution: Muscle: 0.65 ± 0.19 % ID/g
  Biodistribution: Pancreas: 0.99 ± 0.19 % ID/g
  Biodistribution: Small intestine: 2.64 ± 0.17 % ID/g
  Biodistribution: Spleen: 0.15 ± 0.03 % ID/g
  Biodistribution: Stomach: 6.06 ± 1.57 % ID/g
  Biodistribution: Tumor: 26.28 ± 4.25 % ID/g
  Tumor/Blood ratio: 150.3 ± 34.6
  Tumor/Kidney ratio: 1.4 ± 0.4
  Tumor/Muscle ratio: 43.7 ± 16.8
[2]; 8 hr post-injection
  Biodistribution: Bladder: 6.00 ± 3.52 % ID/g
  Biodistribution: Blood: 0.16 ± 0.05 % ID/g
  Biodistribution: Brain: 0.44 ± 0.08 % ID/g
  Biodistribution: Fat: 0.46 ± 0.17 % ID/g
  Biodistribution: Heart: 1.49 ± 0.59 % ID/g
  Biodistribution: Kidney: 18.99 ± 6.14 % ID/g
  Biodistribution: Liver: 1.87 ± 0.77 % ID/g
  Biodistribution: Lung: 8.87 ± 3.30 % ID/g
  Biodistribution: Muscle: 0.47 ± 0.18 % ID/g
  Biodistribution: Pancreas: 1.03 ± 0.50 % ID/g
  Biodistribution: Small intestine: 3.67 ± 0.93 % ID/g
  Biodistribution: Spleen: 0.29 ± 0.05 % ID/g
  Biodistribution: Stomach: 6.15 ± 2.65 % ID/g
  Biodistribution: Tumor: 27.48 ± 4.32 % ID/g
  Tumor/Blood ratio: 178.6 ± 36.6
  Tumor/Kidney ratio: 1.5 ± 0.3
  Tumor/Muscle ratio: 65.0 ± 19.0
[2]; [5]
  Biodistribution: Bladder: 0.73 ± 0.55 % ID/g
  Biodistribution: Blood: 0.04 ± 0.02 % ID/g
  Biodistribution: Brain: 0.04 ± 0.01 % ID/g
  Biodistribution: Fat: 0.03 ± 0.03 % ID/g
  Biodistribution: Heart: 0.08 ± 0.04 % ID/g
  Biodistribution: Kidney: 1.54 ± 1.44 % ID/g
  Biodistribution: Liver: 0.46 ± 0.34 % ID/g
  Biodistribution: Lung: 0.73 ± 0.58 % ID/g
  Biodistribution: Muscle: 0.03 ± 0.01 % ID/g
  Biodistribution: Pancreas: 0.05 ± 0.03 % ID/g
  Biodistribution: Small intestine: 0.18 ± 0.07 % ID/g
  Biodistribution: Spleen: 0.38 ± 0.32 % ID/g
  Biodistribution: Stomach: 0.21 ± 0.07 % ID/g
  Biodistribution: Tumor: 1.70 ± 0.79 % ID/g
  Tumor/Blood ratio: 42.0 ± 20.9
  Tumor/Kidney ratio: 1.4 ± 0.6
  Tumor/Muscle ratio: 58.6 ± 25.3
[2]; 24 hr post-injection
  Biodistribution: Bladder: 1.29 ± 1.10 % ID/g
  Biodistribution: Blood: 0.02 ± 0.01 % ID/g
  Biodistribution: Brain: 0.28 ± 0.10 % ID/g
  Biodistribution: Fat: 0.05 ± 0.04 % ID/g
  Biodistribution: Heart: 0.28 ± 0.14 % ID/g
  Biodistribution: Kidney: 3.11 ± 1.59 % ID/g
  Biodistribution: Liver: 0.47 ± 0.21 % ID/g
  Biodistribution: Lung: 1.48 ± 0.59 % ID/g
  Biodistribution: Muscle: 0.10 ± 0.05 % ID/g
  Biodistribution: Pancreas: 0.16 ± 0.07 % ID/g
  Biodistribution: Small intestine: 0.96 ± 0.32 % ID/g
  Biodistribution: Spleen: 0.20 ± 0.07 % ID/g
  Biodistribution: Stomach: 1.02 ± 0.56 % ID/g
  Biodistribution: Tumor: 12.51 ± 3.02 % ID/g
  Tumor/Blood ratio: 607.4±200.7
  Tumor/Kidney ratio: 4.5±1.4
  Tumor/Muscle ratio: 128.4±25.4
[2]; [6]
  Biodistribution: Bladder: 0.28 ± 0.09 % ID/g
  Biodistribution: Blood: 0.04 ± 0.07 % ID/g
  Biodistribution: Brain: 0.02 ± 0.00 % ID/g
  Biodistribution: Fat: 0.02 ± 0.01 % ID/g
  Biodistribution: Heart: 0.04 ± 0.01 % ID/g
  Biodistribution: Kidney: 0.39 ± 0.05 % ID/g
  Biodistribution: Liver: 0.23 ± 0.04 % ID/g
  Biodistribution: Lung: 0.18 ± 0.05 % ID/g
  Biodistribution: Muscle: 0.01 ± 0.00 % ID/g
  Biodistribution: Pancreas: 0.02 ± 0.00 % ID/g
  Biodistribution: Small intestine: 0.05 ± 0.01 % ID/g
  Biodistribution: Spleen: 0.15 ± 0.06 % ID/g
  Biodistribution: Stomach: 0.09 ± 0.02 % ID/g
  Biodistribution: Tumor: 0.65 ± 0.10 % ID/g
  Tumor/Blood ratio: 42.7 ± 23.7
  Tumor/Kidney ratio: 1.7 ± 0.3
  Tumor/Muscle ratio: 62.5 ± 34.5
[2]; 48 hr post-injection
  Biodistribution: Bladder: 0.20 ± 0.01 % ID/g
  Biodistribution: Blood: 0.04 ± 0.01 % ID/g
  Biodistribution: Brain: 0.17 ± 0.03 % ID/g
  Biodistribution: Fat: 0.03 ± 0.01 % ID/g
  Biodistribution: Heart: 0.12 ± 0.17 % ID/g
  Biodistribution: Kidney: 0.76 ± 0.11 % ID/g
  Biodistribution: Liver: 0.19 ± 0.03 % ID/g
  Biodistribution: Lung: 0.90 ± 0.05 % ID/g
  Biodistribution: Muscle: 0.04 ± 0.01 % ID/g
  Biodistribution: Pancreas: 0.06 ± 0.01 % ID/g
  Biodistribution: Small intestine: 0.20 ± 0.05 % ID/g
  Biodistribution: Spleen: 0.13 ± 0.04 % ID/g
  Biodistribution: Stomach: 0.35 ± 0.04 % ID/g
  Biodistribution: Tumor: 5.82 ± 2.14 % ID/g
  Tumor/Blood ratio: 200.2 ± 101.7
  Tumor/Kidney ratio: 7.1 ± 1.8
  Tumor/Muscle ratio: 141.5 ± 71.7
[3]
  uptake in vitro: CAIX specific uptake in vitro
[4]
  SPECT/CT tumor imaging finding: radiotracer uptake in tumor as early as 1 h post-injection; also recorded: tumor visualization by 1 h post-injection
